Reference: PMC9574929, “Development of Hydrogen Sulfide-Releasing Carbonic Anhydrases IX- and XII-Selective Inhibitors with Enhanced Antihyperalgesic Action in a Rat Model of Arthritis” (Journal of Medicinal Chemistry, 2022)
“Also recorded” adds a separate entry of the source.

How the values were obtained:
hCA IX = hCA IX (Homo sapiens, UniProt Q16790); assay: Stopped-flow CO2 hydrase assay, hCA IX; details: selectivity index, ratio of KIs
[1] = tested on: rat model of arthritis induced by the intra-articular injection of complete Freund's adjuvant (CFA); assay: Paw pressure test, CFA-induced arthritis; assay type: in vivo
Experimental: (§1) Articular damage was induced by injection of Complete Freund’s Adjuvant (CFA; Sigma-Aldrich, St Louis, MO, USA), containing 1 mg/mL of heat-killed and dried Mycobacterium tuberculosis in paraffin oil and mannide monooleate, into the tibiotarsal joint.[50] Briefly, the rats were lightly anesthetized with 2% isoflurane, the left leg skin was sterilized with 75% ethyl alcohol, and the lateral malleolus was located by palpation. A 28-gauge needle was then inserted vertically to penetrate the skin and turned distally for insertion into the articular cavity at the gap between the tibiofibular and tarsal bone until a distinct loss of resistance was felt. A volume of 50 μL of CFA was then injected (day 0). Control rats received 50 μL of saline solution (day 0) in the tibiotarsal joint.
(§2) The hybrid derivatives 26, 29, 30, and 31 (1, 10, and 30 mg/kg) were suspended in a 1% solution of carboxymethylcellulose (CMC) sodium salt and acutely per os administered starting from day 14 after CFA i.a. injection, when arthritis was well established. The H2S releaser 3 and CAI 15 were also administered alone or in coadministration at the equimolar dose of compound 30 30 mg/kg (13.23 and 17.71 mg/kg, respectively). The antihypersensitivity effects were evaluated over time by the Paw pressure and Incapacitance tests.
The nociceptive threshold of rats was determined with an analgesimeter (Ugo Basile, Varese, Italy), according to the method described by Leighton et al.[51] and Maresca et al.,[52] (doi: 10.1111/jphp.12828). Briefly, a constantly increasing pressure was applied to a small area of the dorsal surface of the hind paw using a blunt conical probe by a mechanical device. Mechanical pressure was increased until vocalization or a withdrawal reflex occurred while rats were lightly restrained. Vocalization or withdrawal reflex thresholds were expressed in grams. […]

[2] = tested on: rat model of arthritis induced by the intra-articular injection of complete Freund's adjuvant (CFA); assay: Incapacitance test, CFA-induced arthritis; assay type: in vivo; details: for reduction of spontaneous pain, Incapacitance test: single per os, 1 to 30 mg/kg, day 14 after CFA
Experimental: as §1, §2
Weight-bearing changes were measured using an incapacitance apparatus (Linton Instrumentation, Norfolk, U.K.) to detect changes in postural equilibrium after a hind limb injury.[53],[54] Rats were trained to stand on their hind paws in a box with an inclined plane (65° from horizontal). This box was placed above the incapacitance apparatus. This allowed us to independently measure the weight that the animal applied on each hind limb. The value reported for each animal is the mean of five consecutive measurements. In the absence of hind limb injury, rats applied an equal weight on both hind limbs, indicating postural equilibrium, whereas an unequal distribution of weight on the hind limbs indicated a monolateral decreased pain threshold. Data are expressed as the difference between the weight applied to the limb contralateral to the injury and the weight applied to the ipsilateral limb (Δ weight).

rats = assay: Toxicity and Irwin test; assay type: in vivo, rat; parameters: key to Irwin test: Spontaneous activity / Irwin test: Straightening reflex / Irwin test: Hypo-hyperthermia / Irwin test: Cleaning / Irwin test: Curiosity / Irwin test: Reactivity / Irwin test: Convulsions: observer's semiquantitative score (0 to +4, −4 to 0, or −4 to +4); details: 30 mg/kg; for Irwin test: Cyanosis / Irwin test: Exolphthalmos / Irwin test: Flush / Irwin test: Lacrimation / Irwin test: Pallor / Irwin test: Piloerection / Irwin test: Salivation / Irwin test: Writhing / Irwin test: Palpebral opening / Irwin test: Hypo-hyperthermia: Autonomic signes; for Irwin test: Cyanosis / Irwin test: Exolphthalmos / Irwin test: Flush / Irwin test: Lacrimation / Irwin test: Pallor / Irwin test: Piloerection / Irwin test: Salivation / Irwin test: Writhing / Irwin test: Passivity / Irwin test: Vocalization / Irwin test: Ataxia / Irwin test: Stereotipies / Irwin test: Straub tail / Irwin test: Tremors / Irwin test: Delayed death (48 h) / Irwin test: Immediate death: limits 0 - 4; for Irwin test: Palpebral opening / Irwin test: Cleaning / Irwin test: Curiosity / Irwin test: Reactivity / Irwin test: Spontaneous activity / Irwin test: Straightening reflex / Irwin test: Palpebral reflex / Irwin test: Convulsions: limits 4 - 0; for Irwin test: Hypo-hyperthermia: limits -4/+4; for Irwin test: Passivity / Irwin test: Vocalization / Irwin test: Cleaning / Irwin test: Curiosity / Irwin test: Reactivity / Irwin test: Spontaneous activity: Behaviour; for Irwin test: Ataxia / Irwin test: Stereotipies / Irwin test: Straightening reflex: Movement; for Irwin test: Physical strenght: Muscolar tone, limits 4 – 0; for Irwin test: Palpebral reflex: Reflexes; for Irwin test: Straub tail / Irwin test: Tremors / Irwin test: Convulsions: S.N.C. excitement; for Irwin test: Delayed death (48 h) / Irwin test: Immediate death: Toxicity
Experimental: Toxicity was evaluated after a single acute administration of 26, 29, 30, and 31 at 30 mg/kg. […] For the Irwin test, each rat was individually placed in a transparent cage (26 × 41 cm), and 26 neurobehavioral or physiological parameters were systematically assessed according to Irwin (1968)[55] and already reported by Berrino and colleagues in similar studies.[30] Behavioral, autonomic, and neurological manifestations produced by compound administration in rats were evaluated: motor displacement, motor reflexes, stereotypies, grooming, reaction to painful or environmental stimuli (analgesia and irritability), startle response, secretions, excretions, respiratory movements, skin color and temperature, piloerection, exophthalmos, eyelid and corneal reflexes, muscle tone, ataxia, tremors, head twitches, jumps, convulsions, Straub tail, and other signs or symptoms. For postural reflexes (righting reflex) and other signs such as piloerection, exophthalmia (exaggerated protrusion of the eyeball), ataxia, tremors, and Straub tail, only presence or absence was recorded. Skin color was evaluated qualitatively (pale, red, or purple); other signs were evaluated semiquantitatively, according to the observer’s personal scale (0 to +4, −4 to 0, or −4 to +4). The terms sedation and excitation express the final interpretation of a group of signs: reduced motor activity, reduced startle response, eyelid ptosis, and reduced response to manual manipulation, for the former; and increased motor activity, increased startle response, increased response to manual manipulation, and exophthalmia, for the latter. Hyperactivity includes running, jumping, and attempting to escape from the container. Trained observers were not informed about the specific treatment of each animal group carried out in this test.

hCA XII = hCA XII (Homo sapiens, UniProt O43570); assay: Stopped-flow CO2 hydrase assay, hCA XII; details: selectivity index, ratio of KIs
hCA IV = hCA IV (Homo sapiens, UniProt P22748); assay: Stopped-flow CO2 hydrase assay, hCA IV; details: selectivity index, ratio of KIs
hCA IV, sequence (P22748 19-312): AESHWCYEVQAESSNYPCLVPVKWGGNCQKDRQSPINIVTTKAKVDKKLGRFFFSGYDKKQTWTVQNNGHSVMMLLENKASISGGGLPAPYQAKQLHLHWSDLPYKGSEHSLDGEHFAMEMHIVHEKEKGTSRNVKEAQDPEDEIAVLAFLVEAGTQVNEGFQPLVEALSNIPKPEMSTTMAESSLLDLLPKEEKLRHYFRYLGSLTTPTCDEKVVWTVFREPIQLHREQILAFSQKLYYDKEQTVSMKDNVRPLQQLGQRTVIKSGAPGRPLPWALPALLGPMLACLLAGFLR

hCA XII, sequence (O43570 25-354): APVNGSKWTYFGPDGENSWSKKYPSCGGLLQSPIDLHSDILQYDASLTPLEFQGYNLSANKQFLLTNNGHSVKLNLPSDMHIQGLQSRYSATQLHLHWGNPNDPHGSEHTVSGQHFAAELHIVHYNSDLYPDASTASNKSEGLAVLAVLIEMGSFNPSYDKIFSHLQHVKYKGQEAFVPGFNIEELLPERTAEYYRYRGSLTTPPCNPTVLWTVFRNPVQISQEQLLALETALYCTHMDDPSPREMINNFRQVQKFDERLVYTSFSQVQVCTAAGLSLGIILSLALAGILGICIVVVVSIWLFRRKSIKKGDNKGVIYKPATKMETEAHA

SMILES | SI CA I/IX (hCA IX) | SI CA II/IX (hCA IX) | reduction of spontaneous pain, Incapacitance test [2] | Irwin test: Cyanosis (rats) | Irwin test: Exolphthalmos (rats) | Irwin test: Flush (rats) | Irwin test: Lacrimation (rats) | Irwin test: Pallor (rats) | Irwin test: Piloerection (rats) | Irwin test: Salivation (rats) | Irwin test: Writhing (rats) | Irwin test: Palpebral opening (rats) | Irwin test: Hypo-hyperthermia (rats) | Irwin test: Passivity (rats) | Irwin test: Vocalization (rats) | Irwin test: Cleaning (rats) | Irwin test: Curiosity (rats) | Irwin test: Reactivity (rats) | Irwin test: Spontaneous activity (rats) | Irwin test: Ataxia (rats) | other results
COc1cc([N+](=O)[O-])ccc1CN(CCc1ccc(S(N)(=O)=O)cc1)C(=O)c1ccc(-c2cssc2=S)cc1 [Compound 26, N-(2-Methoxy-4-nitrobenzyl)-N-(4-sulfamoylphenethyl)-4-(3-thioxo-3H-1,2-dithiol-4-yl)benzamide] | 1633 | 719 | reduced spontaneous pain in a dose-dependent manner | 0 | 0 | 0 | 0 | 0 | 0 | 0 | 0 | 4 | 0 | 0 | 0 | 0 | 4 | 4 | 4 | 0 | antihyperalgesic effect, Paw pressure test, 30 mg/kg ([1]; 30 mg/kg per os, day 14 after CFA): completely reverted the pain state 45 min after administration; also recorded: counteracted the mechanical hyperalgesia 45 min after injection; also recorded: completely reverting pain 45 min after treatment; antihypersensitivity effect, Paw pressure test ([1]; single per os, 1 to 30 mg/kg, day 14 after CFA): evoked an antihypersensitivity effect in a dose-dependent manner; antihyperalgesic action at 45 min, Incapacitance test ([2]; per os, 45 min after treatment): almost completely reverting spontaneous pain after 45 min; also recorded: completely reverting pain 45 min after treatment; Irwin test: Stereotipies (rats): 0; Irwin test: Straightening reflex (rats): 4; Irwin test: Physical strenght (rats): 4; Irwin test: Palpebral reflex (rats): 4; Irwin test: Straub tail (rats): 0; Irwin test: Tremors (rats): 0; Irwin test: Convulsions (rats): 0; Irwin test: Delayed death (48 h) (rats): 0; Irwin test: Immediate death (rats): 0; SI CA I/XII (hCA XII): 870; SI CA II/XII (hCA XII): 383; SI CA I/IV (hCA IV): 1.6; SI CA II/IV (hCA IV): 0.7
CSc1ccc(CN(CCc2ccc(S(N)(=O)=O)cc2)C(=O)c2ccc(-c3cssc3=S)cc2)cc1 [Compound 29, N-(4-(Methylthio)benzyl)-N-(4-sulfamoylphenethyl)-4-(3-thioxo-3H-1,2-dithiol-4-yl)benzamide] | 156 | 209 | reduced spontaneous pain in a dose-dependent manner | 0 | 0 | 0 | 0 | 0 | 0 | 0 | 0 | 4 | 0 | 0 | 0 | 0 | 4 | 4 | 4 | 0 | antihyperalgesic effect, Paw pressure test, 1 mg/kg ([1]; 1 mg/kg per os): ineffective; weight tolerated on the ipsilateral paw, Paw pressure test, 10 and 30 mg/kg ([1]; 10 and 30 mg/kg per os, from 15 min up to 45 min after treatment, vs CFA-treated animals): significantly increased the weight tolerated; Irwin test: Stereotipies (rats): 0; Irwin test: Straightening reflex (rats): 4; Irwin test: Physical strenght (rats): 4; Irwin test: Palpebral reflex (rats): 4; Irwin test: Straub tail (rats): 0; Irwin test: Tremors (rats): 0; Irwin test: Convulsions (rats): 0; Irwin test: Delayed death (48 h) (rats): 0; Irwin test: Immediate death (rats): 0; SI CA I/XII (hCA XII): 858; SI CA II/XII (hCA XII): 1148; SI CA I/IV (hCA IV): 17.9; SI CA II/IV (hCA IV): 23.9
